For one data set, the system named is TNF. In words: Cytokine Induction in Human Cells: tumor necrosis factor (TNF) secreted by PBMCs, ELISA. Note: call rule not given here. Particulars: 18 to 24 hours. The data set is classed as cell-based. An outline of the steps:
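Human donor PBMCs at 1.5-2×10^6 cells/mL in RPMI with 10% FBS were exposed to compound, generally at 0.1 to 100 μM (≤1% DMSO final), for 18 to 24 h at 37 °C. Secreted TNF in supernatant was measured by ELISA and reported as pg/mL.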

The test system of the next data set is IFN. In words: Cytokine Induction in Human Cells: interferon (IFN) secreted by PBMCs, A549/encephalomyocarditis bioassay. Note: call rule not given here. The conditions noted are these: 18 to 24 hours. It counts as cell-based. An outline of the steps: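 Human PBMCs from healthy donors at 1.5-2×10^6 cells/mL in RPMI with 10% FBS, exposed to compounds (typically 0.1 to 100 μM, ≤1% DMSO) for 18 to 24 h at 37° C. Secreted IFN measured by A549/encephalomyocarditis virus cytopathic-effect bioassay, in alpha reference units/mL against NIH human leukocyte IFN standard.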

For another data set, the system named is interferon α. In words: Interferon (α) Induction in Human Cells (PBM's, 48 hours, A549 bioassay). Particulars: 48 hours incubation. It counts as cell-based. Further details: key: +: indicates that the compound induced interferon α at that particular concentration; −: indicates that the compound did not induce interferon α at that particular concentration; ±: indicates that the results were equivocal at that particular concentration. How it is done:
An in vitro human blood cell system was used to assess interferon induction by compounds of the invention. Activity is based on the measurement of interferon secreted into culture media. Interferon is measured by bioassay.
Whole blood was collected by venipuncture into EDTA vacutainer tubes. Peripheral blood mononuclear cells (PBM's) were separated from whole blood by using either LeucoPREP™ Brand Cell Separation Tubes (available from Becton Dickinson) or Ficoll-Paque® solution (available from Pharmacia LKB Biotechnology Inc, Piscataway, N.J.). The PBM's were suspended at 1×10^6/mL in RPMI 1640 media (available from GIBCO, Grand Island, N.Y.) containing 25 mM HEPES (N-2-hydroxyethylpiperazine-N′-2-ethanesulfonic acid) and L-glutamine (1% penicillin-streptomycin solution added) with 10% heat inactivated (56° C. for 30 minutes) autologous serum added. 200 μL portions of PBM suspension were added to 96 well (flat bottom) MicroTest III sterile tissue culture plates.
The compounds were solubilized in ethanol, dimethyl sulfoxide or tissue culture water then diluted with tissue culture water, 0.01N sodium hydroxide or 0.01N hydrochloric acid (The choice of solvent will depend on the chemical characteristics of the compound being tested.). Ethanol or DMSO concentration should not exceed a final concentration of 1% for addition to the culture wells. Compounds were initially tested in a concentration range of from about 0.1 μg/mL to about 5 μg/mL. Compounds which show induction at a concentration of 0.5 μg/mL were then tested in a wider concentration range.
The solution of test compound was added in a volume (less than or equal to 50 μL) to the wells containing 200 μL of diluted whole blood or of PBM's in media. Solvent and/or media was added to control wells (wells with no test compound) and as needed to adjust the final volume of each well to 250 μL. The plates were covered with plastic lids, vortexed gently and then incubated for 48 hours at 37° C. with a 5% carbon dioxide atmosphere.
Following incubation, the plates were covered with parafilm and then centrifuged at 1000 rpm for 10 to 15 minutes at 4° C. in a Damon IEC Model CRU-5000 centrifuge. Media (about 200 μL) was removed from 4 to 8 wells and pooled into 2 mL sterile freezing vials. Samples were maintained at −70° C. until analysis.
Interferon was determined by bioassay using A549 human lung carcinoma cells challenged with encephalomyocarditis. The details of the bioassay method have been described by G. L. Brennan and L. H. Kronenberg in “Automated Bioassay of Interferons in Micro-test Plates”, Biotechniques, June/July 78, 1983, incorporated herein by reference. Briefly stated the method is as follows: interferon dilutions and A549 cells are incubated at 37° C. for 12 to 24 hours. The incubated cells are infected with an inoculum of encephalomyocarditis virus. The infected cells are incubated for an additional period at 37° C. before quantifying for viral cytopathic effect. The viral cytopathic effect is quantified by staining followed by spectrophotometric absorbance measurements. Results are expressed as alpha reference units/mL based on the value obtained for NIH HU IF-L standard. The interferon was identified as essentially all interferon alpha by testing in checkerboard neutralization assays against rabbit anti-human interferon (beta) and goat anti-human interferon (alpha) using A549 cell monolayers challenged with encephalomyocarditis virus.

Broadly, the melting point is the temperature, or range, at which the solid turns liquid. The molecule `CC(C)Cn1cnc2c(N)nc3cccnc3c21` [Example 32, 1-(2-Methylpropyl)-1H-imidazo[4,5-c][1,5]naphthyridin-4-amine] showed a melting point of 230 to 231.5 °C. For the same molecule, the TNF induction entry with TNF (Dose Concentration 1.0 μM) is “−”. Moreover, the TNF induction result with TNF (Dose Concentration 10.0 μM) was “−”. Further, the TNF induction result in the data set with TNF (Dose Concentration 100.0 μM) was “−”. Moreover, the IFN induction entry with IFN (Dose Concentration 1.0 μM) is “+”. In addition, the IFN induction entry in the data set with IFN (Dose Concentration 10.0 μM) was “+”. Further, the IFN induction result in the data set with IFN (Dose Concentration 100.0 μM) is given as “+”. Also, the “Interferon (α) Induction in Human Cells” value in the data set on interferon α (Dose Concentration 0.01 μg/mL) is on record as “−”. For the same molecule, in the data set on interferon α (Dose Concentration 0.05 μg/mL), the “Interferon (α) Induction in Human Cells” value is on record as “−”. Moreover, the “Interferon (α) Induction in Human Cells” value in the data set on interferon α (Dose Concentration 0.10 μg/mL) was “−”. Besides, the “Interferon (α) Induction in Human Cells” value with interferon α (Dose Concentration 0.50 μg/mL) is reported as “−”. Also, the “Interferon (α) Induction in Human Cells” value in the data set with interferon α (Dose Concentration 1.0 μg/mL) is recorded as “+”. In the data set on interferon α (Dose Concentration 5.0 μg/mL), the “Interferon (α) Induction in Human Cells” value is recorded as “+”. In addition, the “Interferon (α) Induction in Human Cells” value in the data set with interferon α (Dose Concentration 10.0 μg/mL) is “+”. For the same molecule, in the data set with interferon α (Dose Concentration 25.0 μg/mL), the “Interferon (α) Induction in Human Cells” value is given as “+”. Further, the “Interferon (α) Induction in Human Cells” value with interferon α (Dose Concentration 50.0 μg/mL) was “+”.
The molecule `CC(C)Cn1cnc2c(N)nc3c(c21)NCCC3` [Example 33, 6,7,8,9-Tetrahydro-1-(2-methylpropyl)-1H-imidazo[4,5-c][1,5]naphthyridin-4-amine] came in with a melting point of 222 to 226 °C. Also, the TNF induction entry with TNF (Dose Concentration 1.0 μM) is recorded as “−”. Also, the TNF induction result with TNF (Dose Concentration 10.0 μM) is on record as “−”. In the data set on TNF (Dose Concentration 100.0 μM), the TNF induction entry is “−”. In the data set on IFN (Dose Concentration 1.0 μM), the IFN induction entry is reported as “+”. For the same molecule, the IFN induction result with IFN (Dose Concentration 10.0 μM) is “+”. In the data set with IFN (Dose Concentration 100.0 μM), the IFN induction result is on record as “+”. For the same molecule, the “Interferon (α) Induction in Human Cells” value with interferon α (Dose Concentration 0.01 μg/mL) is listed as “−”. Further, in the data set on interferon α (Dose Concentration 0.05 μg/mL), the “Interferon (α) Induction in Human Cells” value is listed as “−”. Also, in the data set with interferon α (Dose Concentration 0.10 μg/mL), the “Interferon (α) Induction in Human Cells” value is listed as “−”. For the same molecule, the “Interferon (α) Induction in Human Cells” value with interferon α (Dose Concentration 0.50 μg/mL) is given as “−”. In addition, the “Interferon (α) Induction in Human Cells” value in the data set with interferon α (Dose Concentration 1.0 μg/mL) is “−”. For the same molecule, the “Interferon (α) Induction in Human Cells” value in the data set on interferon α (Dose Concentration 5.0 μg/mL) was “+”. Further, the “Interferon (α) Induction in Human Cells” value in the data set with interferon α (Dose Concentration 10.0 μg/mL) is given as “+”. Also, in the data set with interferon α (Dose Concentration 25.0 μg/mL), the “Interferon (α) Induction in Human Cells” value is “+”. Besides, the “Interferon (α) Induction in Human Cells” value in the data set with interferon α (Dose Concentration 50.0 μg/mL) is listed as “+”.
`Cc1nc2c(N)nc3cccnc3c2n1CC(C)C` [Example 36, 2-Methyl-1-(2-methylpropyl)-1H-imidazo[4,5-c][1,5]naphthyridin-4-amine] yielded a melting point of 228 to 230 °C. Further, the TNF induction result in the data set with TNF (Dose Concentration 1.0 μM) is “−”. The TNF induction result in the data set on TNF (Dose Concentration 10.0 μM) was “+”. Also, the TNF induction result with TNF (Dose Concentration 100.0 μM) is reported as “−”. In addition, in the data set on IFN (Dose Concentration 1.0 μM), the IFN induction entry is recorded as “+”. In the data set with IFN (Dose Concentration 10.0 μM), the IFN induction result is on record as “+”. Further, the IFN induction entry in the data set on IFN (Dose Concentration 100.0 μM) is reported as “+”. Besides, the “Interferon (α) Induction in Human Cells” value with interferon α (Dose Concentration 0.01 μg/mL) is reported as “−”. In addition, the “Interferon (α) Induction in Human Cells” value in the data set with interferon α (Dose Concentration 0.05 μg/mL) is “+”. In addition, the “Interferon (α) Induction in Human Cells” value in the data set with interferon α (Dose Concentration 0.10 μg/mL) is on record as “+”. Also, in the data set on interferon α (Dose Concentration 0.50 μg/mL), the “Interferon (α) Induction in Human Cells” value was “+”. Moreover, the “Interferon (α) Induction in Human Cells” value with interferon α (Dose Concentration 1.0 μg/mL) is on record as “+”. The “Interferon (α) Induction in Human Cells” value in the data set with interferon α (Dose Concentration 5.0 μg/mL) is reported as “+”. The “Interferon (α) Induction in Human Cells” value in the data set with interferon α (Dose Concentration 10.0 μg/mL) is on record as “+”. For the same molecule, in the data set with interferon α (Dose Concentration 25.0 μg/mL), the “Interferon (α) Induction in Human Cells” value is on record as “+”. In addition, the “Interferon (α) Induction in Human Cells” value in the data set on interferon α (Dose Concentration 50.0 μg/mL) is “+”.

The record behind these values is patent US7678918B2, “Intermediates for imidazonaphthyridines” (3M Innovative Properties Company, priority 1997, dated 2010).
